Assay results reported in PMC12384813.
Read-outs that look alike come from different tables or passages of the source.

Experiments:
[1] = tested on: U87 MG cells; experiment: cells; type: cell-based, human
Method: In this procedure, U87 MG (2 × 10^4 cells per well) were seeded in BD falcon transparent 96-well plates and incubated for 24 h.

[2] = tested on: SVG p12 normal glial cells
[3] = tested on: SVG p12 normal glial cells; experiment: cells; conditions: Homo sapiens
[4] = tested on: U87 MG cells; experiment: Cellular uptake of ^64Cu-NOTA conjugates; type: cell-based, human; conditions: Table S1
Method: (§1) U87 MG (1 × 10^5 per well) were seeded in corning 24-well plates and cultured in DMEM with 10% FBS at 37 °C. […] For uptake assay, cells were washed with PBS to collect surface-bound and internalized activity, and for internalization assay, glycine-HCl wash was performed to remove surface bound activity. Moreover, cells were harvested, counted, and radioactivity was measured using a gamma counter. Results were expressed as percentage of total activity (%) in counts per min (CPM)/10^6 cells. For efflux studies, U87 MG cells were incubated with the complexes for 1 h, then washed with PBS, and replaced with fresh medium. The retained activity was measured over 0 to 24 h after washing.

[5] = tested on: SVG p12 cells; experiment: Cellular uptake of ^64Cu-NOTA conjugates; type: cell-based, human; conditions: Table S1
[6] = tested on: U87 MG cells; experiment: Internalization of ^64Cu-NOTA conjugates (glycine-HCl wash); type: cell-based, human; conditions: Table S2
Method: as §1

[7] = tested on: SVG p12 cells; experiment: as above; type: cell-based, human; conditions: Table S2
[8] = tested on: U87 MG cells; experiment: Efflux kinetics of ^64Cu-NOTA conjugates; type: cell-based, human; conditions: Table S3
Method: as §1

[9] = tested on: SVG p12 cells; experiment: Efflux kinetics of ^64Cu-NOTA conjugates; type: cell-based, human; conditions: Table S3
[10] = 0.5 h after 1 h incubation and wash

With `Cn1nnc2c(C(N)=O)ncn2c1=O` [Temozolomide] the EC50 ([1]; Homo sapiens, U-87 MG, 24 h, U87 MG, read-out: EC50 24 h U87 MG) was 800 ± 11 µM, the EC50 ([1]; Homo sapiens, U-87 MG, 48 h, U87 MG, read-out: EC50 48 h U87 MG) was 580 ± 8 µM and the EC50 ([1]; Homo sapiens, U-87 MG, 72 h, U87 MG, read-out: EC50 72 h U87 MG) was 575 ± 6 µM. The EC50 [2] was 72 ± 5 µM, the EC50 ([3]; SVGp12, 24 h, read-out: EC50 24 h SVG p12) was 80 ± 10 µM and the EC50 ([3]; SVGp12, 48 h, read-out: EC50 48 h SVG p12) was 76 ± 7 µM.

For `N=C(N)NCCC[C@@H]1NC(=O)[C@H](CCCCNC(=O)CNC(=O)COCCOCCNC(=O)CN2CCN(CC(=O)O)CCN(CC(=O)O)CC2)NC(=O)[C@@H](Cc2ccccc2)NC(=O)[C@H](CC(=O)O)NC(=O)CNC1=O` [[^64Cu]Cu-NOTA-c(RGDfK), metal not drawn], the “Uptake 1h U87 MG” value ([4]; 1 h, 37 °C) was 2.50 ±1.00 % total activity (CPM) /106 cells, the “Uptake 2h U87 MG” value ([4]; 2 h) was 3.23 ±0.61 % total activity (CPM) /106 cells and the “Uptake 4h U87 MG” value ([4]; 4 h) was 6.08 ± 0.60 % total activity (CPM) /106 cells. For the same molecule, the “Uptake 24h U87 MG” value ([4]; 24 h) was 14.11 ± 0.95 % total activity (CPM) /106 cells, the “Uptake 48h U87 MG” value ([4]; 48 h) was 18.95 ± 0.45 % total activity (CPM) /106 cells and the “Uptake 1h SVG p12” value ([5]; 1 h) was 2.67 ± 0.20 % total activity (CPM) /106 cells. The “Uptake 2h SVG p12” value ([5]; 2 h) was 4.02 ± 0.41 % total activity (CPM) /106 cells, the “Uptake 4h SVG p12” value ([5]; 4 h) was 5.36 ± 0.94 % total activity (CPM) /106 cells and the “Uptake 24h SVG p12” value ([5]; 24 h) was 7.90 ± 0.41 % total activity (CPM) /106 cells. The “Uptake 48h SVG p12” value ([5]; 48 h) was 7.30 ± 0.44 % total activity (CPM) /106 cells, the “Internalized activity 1h U87 MG” value ([6]; 1 h) was 3.13 ± 0.31 % total activity (CPM) /106 cells and the “Internalized activity 2h U87 MG” value ([6]; 2 h) was 3.28 ± 0.26 % total activity (CPM) /106 cells. The “Internalized activity 4h U87 MG” value ([6]; 4 h) was 5.00 ± 0.58 % total activity (CPM) /106 cells, the “Internalized activity 24h U87 MG” value ([6]; 24 h) was 11.44 ± 0.62 % total activity (CPM) /106 cells and the “Internalized activity 48h U87 MG” value ([6]; 48 h) was 15.08 ± 0.38 % total activity (CPM) /106 cells. The “Internalized activity 1h SVG p12” value ([7]; 1 h) was 1.72 ±0.14 % total activity (CPM) /106 cells, the “Internalized activity 2h SVG p12” value ([7]; 2 h) was 1.90 ± 0.14 % total activity (CPM) /106 cells and the “Internalized activity 4h SVG p12” value ([7]; 4 h) was 3.05 ±0.48 % total activity (CPM) /106 cells. The “Internalized activity 24h SVG p12” value ([7]; 24 h) was 6.80 ± 0.32 % total activity (CPM) /106 cells, the “Internalized activity 48h SVG p12” value ([7]; 48 h) was 5.98 ± 0.36 % total activity (CPM) /106 cells and the “Efflux (retained activity) 0.5h U87 MG” value [8, 10] was 89.28 ± 6.24 % total activity (CPM) /106 cells. The “Efflux (retained activity) 1h U87 MG” value ([8]; 1 h after wash) was 85.47 ± 3.64 % total activity (CPM) /106 cells, the “Efflux (retained activity) 2h U87 MG” value ([8]; 2 h after wash) was 84.08 ± 7.95 % total activity (CPM) /106 cells and the “Efflux (retained activity) 4h U87 MG” value ([8]; 4 h after wash) was 80.93 ± 6.97 % total activity (CPM) /106 cells. The “Efflux (retained activity) 24h U87 MG” value ([8]; 24 h after wash) was 67.59 ± 2.23 % total activity (CPM) /106 cells, the “Efflux (retained activity) 0.5h SVG p12” value [9, 10] was 94.55 ± 7.92 % total activity (CPM) /106 cells and the “Efflux (retained activity) 1h SVG p12” value ([9]; 1 h after wash) was 88.05 ± 6.90 % total activity (CPM) /106 cells. The “Efflux (retained activity) 2h SVG p12” value ([9]; 2 h after wash) was 83.93 ± 6.98 % total activity (CPM) /106 cells, the “Efflux (retained activity) 4h SVG p12” value ([9]; 4 h after wash) was 73.44 ± 3.92 % total activity (CPM) /106 cells and the “Efflux (retained activity) 24h SVG p12” value ([9]; 24 h after wash) was 17.62 ± 1.81 % total activity (CPM) /106 cells. The EC50 ([1]; 24 h) was 0.025 ± 0.007 µM, the EC50 ([1]; 48 h) was 0.032 ± 0.009 µM and the EC50 ([1]; 72 h) was 0.045 ± 0.002 µM. For the same molecule, the EC50 [2] was 0.118 ± 0.008 µM, the EC50 ([2]; 24 h) was > 0.3 µM and the EC50 ([2]; 48 h) was > 0.2 µM.
